What was measured:
[1] = system: human non-small cell lung cancer cell line NCI-H460; assay: Cell proliferation inhibition test by sensitivity-enhancing to ionizing radiation (Cell Titer Glo); assay type: cell-based; settings: concentration in which SER became 2, NCI-H460 cells, ionizing radiation 2 Gy, cultured 120 hour
How it was run: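 Radiosensitisation measured as SER, a ratio of Cell Titer Glo luminescence in irradiated vs unirradiated plates relative to DMSO; SER2, the concentration yielding SER 2, came from sigmoidal regression. Compound (0.1% DMSO) was given 24 h post-seeding, 2 Gy applied 30 min later, then 120 hour culture at 37° C.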

ATM = biological target: T1, ATM (Homo sapiens, UniProt Q13315); assay: ATM inhibition test (phosphorylation of Chk2 generated by ionizing radiation, AlphaScreen SureFire); assay type: cell-based; settings: phosphorylated Chk2 in NCI-H460 cells, ionizing radiation 8Gy, 1 hour after test compound treatment; read-out: ATM inhibitory activity
T1 construct: detecting phosphorylation of Chk2 in a human non-small cell lung cancer cell line NCI-H460 (ATCC company); host or cells: NCI-H460 human non-small cell lung cancer cells
How it was run: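 In NCI-H460 cells, radiation-triggered Chk2 phosphorylation (8Gy, 1 h) is detected by AlphaScreen SureFire following 1 h compound exposure.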

T1 sequence (Q13315 whole entry): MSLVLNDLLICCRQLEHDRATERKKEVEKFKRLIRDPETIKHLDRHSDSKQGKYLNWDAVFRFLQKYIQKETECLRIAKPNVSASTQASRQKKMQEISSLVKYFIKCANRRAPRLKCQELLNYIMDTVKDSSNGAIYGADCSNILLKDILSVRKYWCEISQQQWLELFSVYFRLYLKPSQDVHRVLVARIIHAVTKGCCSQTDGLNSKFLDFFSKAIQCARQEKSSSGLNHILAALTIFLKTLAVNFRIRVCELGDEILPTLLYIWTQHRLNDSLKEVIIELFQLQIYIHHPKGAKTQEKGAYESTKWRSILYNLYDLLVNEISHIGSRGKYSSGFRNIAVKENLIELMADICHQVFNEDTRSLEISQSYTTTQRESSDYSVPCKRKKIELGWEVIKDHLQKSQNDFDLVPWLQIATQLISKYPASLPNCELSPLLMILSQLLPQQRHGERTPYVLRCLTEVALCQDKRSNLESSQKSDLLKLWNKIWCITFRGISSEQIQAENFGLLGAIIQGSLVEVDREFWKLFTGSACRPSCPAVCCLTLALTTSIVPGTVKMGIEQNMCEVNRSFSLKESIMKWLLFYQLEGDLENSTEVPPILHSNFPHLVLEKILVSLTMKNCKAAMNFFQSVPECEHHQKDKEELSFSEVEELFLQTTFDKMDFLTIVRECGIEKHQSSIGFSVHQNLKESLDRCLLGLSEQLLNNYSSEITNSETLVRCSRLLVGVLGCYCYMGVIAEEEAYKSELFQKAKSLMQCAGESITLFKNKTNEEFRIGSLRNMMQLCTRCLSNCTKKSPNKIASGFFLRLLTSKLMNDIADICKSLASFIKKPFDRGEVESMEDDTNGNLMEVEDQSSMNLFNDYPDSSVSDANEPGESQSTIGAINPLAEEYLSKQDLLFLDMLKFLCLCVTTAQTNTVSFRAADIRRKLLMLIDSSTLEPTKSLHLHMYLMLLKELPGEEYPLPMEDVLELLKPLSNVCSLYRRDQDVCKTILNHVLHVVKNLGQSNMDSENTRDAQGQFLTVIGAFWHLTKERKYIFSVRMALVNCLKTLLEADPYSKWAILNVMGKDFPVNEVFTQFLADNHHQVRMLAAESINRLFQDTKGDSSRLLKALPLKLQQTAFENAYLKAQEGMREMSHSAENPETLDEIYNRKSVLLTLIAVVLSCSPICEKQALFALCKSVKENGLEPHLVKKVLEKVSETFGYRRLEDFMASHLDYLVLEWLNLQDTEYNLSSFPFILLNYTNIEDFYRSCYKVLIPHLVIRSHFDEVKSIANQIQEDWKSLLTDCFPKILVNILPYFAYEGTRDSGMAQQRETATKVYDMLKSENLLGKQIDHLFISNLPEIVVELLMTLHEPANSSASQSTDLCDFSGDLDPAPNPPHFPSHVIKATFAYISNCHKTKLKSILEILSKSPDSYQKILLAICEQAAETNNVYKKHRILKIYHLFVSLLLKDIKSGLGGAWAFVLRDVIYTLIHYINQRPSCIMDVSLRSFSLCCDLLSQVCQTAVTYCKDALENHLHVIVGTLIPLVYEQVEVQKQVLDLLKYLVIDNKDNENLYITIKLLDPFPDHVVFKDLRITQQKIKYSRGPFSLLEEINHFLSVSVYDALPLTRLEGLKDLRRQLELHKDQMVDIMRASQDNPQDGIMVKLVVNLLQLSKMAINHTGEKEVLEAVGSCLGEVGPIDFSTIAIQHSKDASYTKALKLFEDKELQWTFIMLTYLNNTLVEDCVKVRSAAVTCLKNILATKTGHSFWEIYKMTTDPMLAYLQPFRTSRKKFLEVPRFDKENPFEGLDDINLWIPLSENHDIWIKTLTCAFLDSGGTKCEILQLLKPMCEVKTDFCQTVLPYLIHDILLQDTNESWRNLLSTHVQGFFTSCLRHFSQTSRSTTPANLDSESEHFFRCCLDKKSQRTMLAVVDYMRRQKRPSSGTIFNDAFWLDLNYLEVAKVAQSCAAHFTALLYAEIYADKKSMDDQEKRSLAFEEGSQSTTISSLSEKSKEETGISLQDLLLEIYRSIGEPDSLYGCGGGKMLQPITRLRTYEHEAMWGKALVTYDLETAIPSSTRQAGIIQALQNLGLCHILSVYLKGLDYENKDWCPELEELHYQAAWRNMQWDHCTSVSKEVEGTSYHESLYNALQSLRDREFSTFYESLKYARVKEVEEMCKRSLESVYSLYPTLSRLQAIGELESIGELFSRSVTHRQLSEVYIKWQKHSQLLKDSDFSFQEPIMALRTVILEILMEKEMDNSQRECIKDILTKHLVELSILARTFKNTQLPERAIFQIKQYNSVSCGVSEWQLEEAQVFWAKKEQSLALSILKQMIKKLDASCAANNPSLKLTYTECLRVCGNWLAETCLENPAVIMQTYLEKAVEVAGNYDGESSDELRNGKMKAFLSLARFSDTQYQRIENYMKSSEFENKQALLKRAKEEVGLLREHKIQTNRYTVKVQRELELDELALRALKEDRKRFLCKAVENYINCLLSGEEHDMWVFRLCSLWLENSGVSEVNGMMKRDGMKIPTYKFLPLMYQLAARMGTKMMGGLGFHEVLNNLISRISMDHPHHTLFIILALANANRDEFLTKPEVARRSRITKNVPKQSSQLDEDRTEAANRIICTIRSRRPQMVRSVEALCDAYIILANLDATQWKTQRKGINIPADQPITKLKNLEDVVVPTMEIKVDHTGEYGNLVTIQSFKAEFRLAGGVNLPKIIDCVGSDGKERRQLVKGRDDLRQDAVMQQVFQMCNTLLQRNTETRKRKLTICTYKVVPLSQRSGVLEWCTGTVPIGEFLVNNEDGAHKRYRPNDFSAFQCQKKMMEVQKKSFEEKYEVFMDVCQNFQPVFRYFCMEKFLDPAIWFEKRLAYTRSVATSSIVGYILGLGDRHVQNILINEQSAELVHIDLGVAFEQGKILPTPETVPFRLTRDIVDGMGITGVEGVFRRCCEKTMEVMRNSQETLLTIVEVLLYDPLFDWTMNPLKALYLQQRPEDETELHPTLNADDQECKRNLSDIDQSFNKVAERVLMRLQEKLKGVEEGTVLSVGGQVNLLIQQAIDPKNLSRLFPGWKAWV

SMILES | IC50 (ATM) [nM] | SER2 (concentration at which the radiation sensitivity-enhancement ratio reaches 2) ([1]; Homo sapiens, NCI-H460, 120 h) [nM] | SER2 (concentration at which the radiation sensitivity-enhancement ratio reaches 2) [1] [nM]
Cc1cnc(C(CCN(C)C)Nc2ccc3c(c2)Sc2cccc(-c4cc(N5CCOCC5)cc(=O)[nH]4)c2S3)cn1 (single isomer, unassigned) [Example 1-22-12-2, 6-(7-((3-(dimethylamino)-1-(5-methylpyrazin-2-yl)propyl)amino)thianthren-1-yl)-4-morpholinopyridin-2(1H)-one] | < 100 |  | < 100
COc1cc(CNc2ccc3c(c2)Sc2cccc(-c4cc(N5CCOCC5)cc(=O)[nH]4)c2S3)ccn1 [Example 1-44-4, 6-(7-(((2-Methoxypyridin-4-yl)methyl)amino)thianthren-1-yl)-4-morpholino pyridin-2 (1H)-one] | < 100 | 500 to 2000 | 
COc1ccnc(C(C)Nc2ccc3c(c2)Sc2cccc(-c4cc(N5CCOCC5)cc(=O)[nH]4)c2S3)n1 (centres unmarked) [Example 1-12-77, 6-(7-((1-(4-Methoxypyrimidin-2-yl)ethyl)amino)thianthren-1-yl)-4-morpholino pyridin-2(1H)-one] | < 100 | 100 to 500 | 
Cc1cccc(C(Nc2ccc3c(c2)Sc2cccc(-c4cc(N5CCOCC5)cc(=O)[nH]4)c2S3)C2CCN(C)C2)n1 (single isomer, unassigned) [Example 1-22-7, 6-(7-(((6-Methylpyridin-2-yl)(1-methylpyrrolidin-3-yl)methyl)amino)thianthren-1-yl)-4-morpholino pyridin-2 (1H)-one] | < 100 |  | < 100
CCN(C)CCC(Nc1ccc2c(c1)Sc1cccc(-c3cc(N4CCOCC4)cc(=O)[nH]3)c1S2)c1cnc(C)cn1 (centres unmarked) [Example 1-23-2, 6-(7-((3-(Ethyl(methyl)amino)-1-(5-methylpyrazin-2-yl)propyl)amino)thianthren-1-yl)-4-morpholinopyridin-2(1H)-one] | < 100 | 100 to 500 | 
O=c1cc(N2CCOCC2)cc(-c2cccc3c2Sc2ccc(NCCN4C5CCC4COC5)cc2S3)[nH]1 [Example 1-10-5, 6-(7-((2-(3-oxa-8-azabicyclo[3.2.1]octan-8-yl)ethyl)amino)thianthren-1-yl)-4-morpholinopyridin-2(1H)-one] | < 100 | 100 to 500 | 
COC(=O)C(Nc1ccc2c(c1)Sc1cccc(-c3cc(N4CCOCC4)cc(=O)[nH]3)c1S2)c1ccc(C)cn1 (centres unmarked) [Example 1-12-108, Methyl 2-(5-methylpyridin-2-yl)-2-((6-(4-morpholino-6-oxo-1,6-dihydropyridin-2-yl)thianthren-2-yl)amino) acetate] | < 100 | 100 to 500 | 
CC(CN1CCN(c2ccccn2)CC1)Nc1ccc2c(c1)Sc1cccc(-c3cc(N4CCOCC4)cc(=O)[nH]3)c1S2 (centres unmarked) [Example 1-13-17, 4-Morpholino-6-(7-((1-(4-(pyridin-2-yl)piperazin-1-yl)propan-2-yl)amino)thianthren-1-yl)pyridin-2 (1H)-one] | < 100 | 100 to 500 | 
COCCN1CCC(Nc2ccc3c(c2)Sc2cccc(-c4cc(N5CCOCC5)cc(=O)[nH]4)c2S3)CC1 [Example 1-26-1, 6-(7-((1-(2-methoxyethyl)piperidin-4-yl)amino)thianthren-1-yl)-4-morpholinopyridin-2(1H)-one] | < 100 | 100 to 500 | 
CCC(CN1CCOCC1)Nc1ccc2c(c1)Sc1cccc(-c3cc(N4CCOCC4)cc(=O)[nH]3)c1S2 (centres unmarked) [Example 1-13-1, 4-Morpholino-6-(7-((1-morpholinobutan-2-yl)amino)thianthren-1-yl)pyridin-2(1H)-one] | < 100 | 100 to 500 | 
COCC(Nc1ccc2c(c1)Sc1cccc(-c3cc(N4CCOCC4)cc(=O)[nH]3)c1S2)c1ncc(C)cn1 (centres unmarked) [Example 1-12-96, 6-(7-((2-Methoxy-1-(5-methylpyrimidin-2-yl)ethyl)amino)thianthren-1-yl)-4-morpholino pyridin-2(1H)-one] | < 100 | 100 to 500 | 
Cc1cnc(C(CF)Nc2ccc3c(c2)Sc2cccc(-c4cc(N5CCOCC5)cc(=O)[nH]4)c2S3)nc1 (centres unmarked) [Example 1-12-93, 6-(7-((2-Fluoro-1-(5-methylpyrimidin-2-yl)ethyl)amino)thianthren-1-yl)-4-morpholino pyridin-2(1H)-one] | < 100 | 100 to 500 | 
CCC(Nc1ccc2c(c1)Sc1cccc(-c3cc(N4CCOCC4)cc(=O)[nH]3)c1S2)c1ccc(C)cn1 (centres unmarked) [Example 1-12-118, 6-(7-((1-(5-Methylpyridin-2-yl)propyl)amino)thianthren-1-yl)-4-morpholino pyridin-2(1H)-one] | < 100 | 100 to 500 | 

Further lines, with some results ahead:

IC50 (ATM) [nM] | SMILES | SER2 (concentration at which the radiation sensitivity-enhancement ratio reaches 2) ([1]; Homo sapiens, NCI-H460, 120 h) [nM] | SER2 (concentration at which the radiation sensitivity-enhancement ratio reaches 2) [1] [nM]
< 100 | N#Cc1cncc(CNc2ccc3c(c2)Cc2cccc(-c4cc(N5CCOCC5)cc(=O)[nH]4)c2O3)c1 [Example 2-14-7, 5-(((5-(4-Morpholino-6-oxo-1,6-dihydropyridin-2-yl)-9H-xanthen-2-yl)amino)methyl)nicotinonitrile] | 500 to 2000 | 
< 100 | C=C(C)c1cncc(CNc2ccc3c(c2)Cc2cccc(-c4cc(N5CCOCC5)cc(=O)[nH]4)c2O3)c1 [Example 2-14-10, 4-Morpholino-6-(7-(((5-(prop-1-en-2-yl)pyridin-3-yl)methyl)amino)-9H-xanthen-4-yl)pyridin-2 (1H)-one] | 100 to 500 | 
< 100 | COc1cncc(CN2CCC(Nc3ccc4c(c3)Cc3cccc(-c5cc(N6CCOCC6)cc(=O)[nH]5)c3O4)CC2)n1 [Example 2-28-23, 6-(7-((1-((6-Methoxypyrazin-2-yl)methyl)piperidin-4-yl)amino)-9H-xanthen-4-yl)-4-morpholino pyridin-2(1H)-one] | 500 to 2000 | 
< 100 | COc1cc(CNc2ccc3c(c2)Sc2cccc(-c4cc(N5CCOCC5)cc(=O)[nH]4)c2O3)cnc1OC [Example 4-4-12, 6-(8-(((5,6-Dimethoxypyridin-3-yl)methyl)amino)phenoxathiin-4-yl)-4-morpholino pyridin-2(1H)-one] | 100 to 500 | 
< 100 | CNc1ccc(CNc2ccc3c(c2)Sc2cccc(-c4cc(N5CCOCC5)cc(=O)[nH]4)c2O3)cn1 [Example 4-4-6, 6-(8-(((6-(Methylamino)pyridin-3-yl)methyl)amino)phenoxathiin-4-yl)-4-morpholino pyridin-2(1H)-one] | 500 to 2000 | 
< 100 | COc1ccc(CNc2ccc3c(c2)Cc2cccc(-c4cc(N5CCOCC5)cc(=O)[nH]4)c2O3)cn1 [Example 2-2-1, 6-(7-(((6-methoxypyridin-3-yl)methyl)amino)-9H-xanthen-4-yl)-4-morpholinopyridin-2(1H)-one] | 100 to 500 | 
< 100 | Cc1cncc(C(C)Nc2ccc3c(c2)Sc2cccc(-c4cc(N5CCOCC5)cc(=O)[nH]4)c2O3)c1 (centres unmarked) [Example 4-4-29, 6-(8-((1-(5-Methylpyridin-3-yl)ethyl)amino)phenoxathiin-4-yl)-4-morpholino pyridin-2(1H)-one] | 100 to 500 | 
< 100 | COc1ccc(CNc2ccc3c(c2)Cc2cccc(-c4cc(N5CCOCC5)cc(=O)[nH]4)c2S3)cn1 [Example 3-8-10, 6-(7-(((6-Methoxypyridin-3-yl)methyl)amino)-9H-thioxanthen-4-yl)-4-morpholino pyridin-2(1H)-one] | 100 to 500 | 
< 100 | COc1ncc(CNc2ccc3c(c2)Sc2cccc(-c4cc(N5CCOCC5)cc(=O)[nH]4)c2O3)cc1F [Example 4-4-14, 6-(8-(((5-Fluoro-6-methoxypyridin-3-yl)methyl)amino)phenoxathiin-4-yl)-4-morpholino pyridin-2(1H)-one] | 100 to 500 | 
< 100 | N#Cc1cccc(CNc2ccc3c(c2)Sc2cccc(-c4cc(N5CCOCC5)cc(=O)[nH]4)c2O3)n1 [Example 4-4-25, 6-(((6-(4-Morpholino-6-oxo-1,6-dihydropyridin-2-yl)phenoxathiin-2-yl)amino)methyl)picolinonitrile] | 500 to 2000 | 
< 100 | Cc1ccnc(CNc2ccc3c(c2)Cc2ccc(F)c(-c4cc(N5CCOCC5)cc(=O)[nH]4)c2O3)c1 [Example 2-46-5, 6-(3-Fluoro-7-(((4-methylpyridin-2-yl)methyl)amino)-9H-xanthen-4-yl)-4-morpholinopyridin-2(1H)-one] | 100 to 500 | 
< 100 | O=c1cc(N2CCOCC2)cc(-c2cccc3c2Oc2ccc(NCc4cncc(C(F)(F)F)c4)cc2C3)[nH]1 [Example 2-13-4, 4-Morpholino-6-(7-(((5-(trifluoromethyl)pyridin-3-yl)methyl)amino)-9H-xanthen-4-yl)pyridin-2(1H)-one] | 100 to 500 | 
